Results from ChEMBL document CHEMBL1129113, “Adipoyl-6-aminopenicillanic acid is a substrate for deacetoxycephalosporin C synthase (DAOCS)” (Bioorg Med Chem Lett, 1996).

Key:
[1] = test system: Escherichia coli; experiment: Enzyme catalytic constant (Kcat) against Deacetoxycephalosporin C synthase
[2] = test system: Escherichia coli; experiment: Enzyme kinetic constant (Km) against Deacetoxycephalosporin C synthase

Structure (SMILES)	k cat [1] [s⁻¹]	Km [2] [mM]
CC1(C)S[C@@H]2[C@H](NC(=O)CCCCC(=O)O)C(=O)N2[C@H]1C(=O)O	0.071	1.22
CC1(C)S[C@@H]2[C@H](NC(=O)CCC[C@@H](N)C(=O)O)C(=O)N2[C@H]1C(=O)O	0.442	10.3
